Laboratory results from paper PMC6199744, “Development of Chemical Proteomics for the Folateome and Analysis of the Kinetoplastid Folateome” (ACS Infectious Diseases, 2018).
Read-outs that look alike come from different tables or passages of the source.

What was measured:
Format in all cases: binding
[1] = biological target: T1, HeLa cell extract proteins (Homo sapiens, UniProt P53396)
T1 construct: endogenous in cells; host or cells: HeLa cell extract
T1 sequence (P53396 1-1101): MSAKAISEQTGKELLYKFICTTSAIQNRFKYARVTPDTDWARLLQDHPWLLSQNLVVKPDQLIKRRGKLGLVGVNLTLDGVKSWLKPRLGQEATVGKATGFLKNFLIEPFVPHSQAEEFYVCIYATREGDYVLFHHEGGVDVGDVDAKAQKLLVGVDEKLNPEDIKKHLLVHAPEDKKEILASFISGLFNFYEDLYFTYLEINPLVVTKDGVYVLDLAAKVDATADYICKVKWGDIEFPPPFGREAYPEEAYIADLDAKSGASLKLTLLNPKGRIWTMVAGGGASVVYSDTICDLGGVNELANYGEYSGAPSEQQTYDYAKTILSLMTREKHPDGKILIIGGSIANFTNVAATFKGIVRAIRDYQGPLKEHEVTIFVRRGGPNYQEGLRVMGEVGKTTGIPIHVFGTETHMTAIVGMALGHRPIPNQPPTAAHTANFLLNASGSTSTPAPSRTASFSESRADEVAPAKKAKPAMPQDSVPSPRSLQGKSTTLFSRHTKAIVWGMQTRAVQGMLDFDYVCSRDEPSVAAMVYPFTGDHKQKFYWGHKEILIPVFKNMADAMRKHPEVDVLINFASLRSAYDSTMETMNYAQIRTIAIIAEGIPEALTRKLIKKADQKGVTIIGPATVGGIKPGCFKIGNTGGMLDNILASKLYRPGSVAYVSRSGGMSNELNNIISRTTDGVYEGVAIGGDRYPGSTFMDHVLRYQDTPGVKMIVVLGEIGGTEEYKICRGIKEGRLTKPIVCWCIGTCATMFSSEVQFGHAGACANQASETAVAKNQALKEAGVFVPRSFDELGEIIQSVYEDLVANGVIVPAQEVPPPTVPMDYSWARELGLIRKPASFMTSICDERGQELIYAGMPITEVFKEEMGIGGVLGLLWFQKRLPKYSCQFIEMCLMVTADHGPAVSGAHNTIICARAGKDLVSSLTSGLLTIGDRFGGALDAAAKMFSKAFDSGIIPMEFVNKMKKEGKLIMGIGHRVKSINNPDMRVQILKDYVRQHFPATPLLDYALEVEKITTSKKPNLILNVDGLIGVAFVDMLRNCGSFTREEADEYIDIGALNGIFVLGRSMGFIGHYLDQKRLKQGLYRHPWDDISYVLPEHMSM

[2] = biological target: T2, HeLa cell extract proteins (Homo sapiens, UniProt P09972)
T2 construct: endogenous in cells; host or cells: HeLa cell extract
T2 sequence (P09972 1-364): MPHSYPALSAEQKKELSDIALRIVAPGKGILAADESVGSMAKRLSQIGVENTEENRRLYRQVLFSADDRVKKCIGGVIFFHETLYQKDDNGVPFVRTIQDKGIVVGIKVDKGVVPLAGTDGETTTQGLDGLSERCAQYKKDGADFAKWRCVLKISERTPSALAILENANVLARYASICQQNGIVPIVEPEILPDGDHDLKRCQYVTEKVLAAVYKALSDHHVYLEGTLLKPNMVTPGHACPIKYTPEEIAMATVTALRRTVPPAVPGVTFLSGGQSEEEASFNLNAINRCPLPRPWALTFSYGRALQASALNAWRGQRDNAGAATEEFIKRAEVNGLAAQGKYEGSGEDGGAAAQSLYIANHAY

[3] = biological target: T3, HeLa cell extract proteins (Homo sapiens, UniProt Q8IYS1)
T3 construct: endogenous in cells; host or cells: HeLa cell extract
T3 sequence (Q8IYS1 1-436): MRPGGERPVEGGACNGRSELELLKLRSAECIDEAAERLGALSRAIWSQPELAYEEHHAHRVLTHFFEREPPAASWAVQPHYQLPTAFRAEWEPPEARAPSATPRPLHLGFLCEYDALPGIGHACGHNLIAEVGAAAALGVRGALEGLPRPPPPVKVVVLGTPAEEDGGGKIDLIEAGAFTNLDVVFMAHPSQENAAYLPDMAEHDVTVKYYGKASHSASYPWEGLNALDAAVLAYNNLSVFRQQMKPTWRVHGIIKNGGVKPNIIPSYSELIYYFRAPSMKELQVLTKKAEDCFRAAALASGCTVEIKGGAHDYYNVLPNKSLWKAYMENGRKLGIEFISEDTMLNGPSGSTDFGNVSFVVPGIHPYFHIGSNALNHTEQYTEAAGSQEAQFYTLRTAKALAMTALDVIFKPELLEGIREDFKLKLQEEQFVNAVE

[4] = biological target: T4, HeLa cell extract proteins (Homo sapiens, UniProt Q9Y265)
T4 construct: endogenous in cells; host or cells: HeLa cell extract
T4 sequence (Q9Y265 whole entry): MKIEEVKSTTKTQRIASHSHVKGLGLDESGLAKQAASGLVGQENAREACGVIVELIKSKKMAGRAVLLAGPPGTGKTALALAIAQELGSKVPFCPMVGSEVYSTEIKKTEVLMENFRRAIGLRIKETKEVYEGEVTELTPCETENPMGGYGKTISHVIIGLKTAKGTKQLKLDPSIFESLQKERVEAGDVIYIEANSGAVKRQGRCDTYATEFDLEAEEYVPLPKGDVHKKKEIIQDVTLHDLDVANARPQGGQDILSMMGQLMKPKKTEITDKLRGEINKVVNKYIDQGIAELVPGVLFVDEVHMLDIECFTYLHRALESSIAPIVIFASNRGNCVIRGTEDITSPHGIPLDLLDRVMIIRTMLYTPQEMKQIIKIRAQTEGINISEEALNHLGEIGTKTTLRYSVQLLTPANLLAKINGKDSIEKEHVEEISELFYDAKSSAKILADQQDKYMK

[5] = biological target: T5, HeLa cell extract proteins (Homo sapiens, UniProt P07437)
T5 construct: endogenous in cells; host or cells: HeLa cell extract
T5 sequence (P07437 whole entry): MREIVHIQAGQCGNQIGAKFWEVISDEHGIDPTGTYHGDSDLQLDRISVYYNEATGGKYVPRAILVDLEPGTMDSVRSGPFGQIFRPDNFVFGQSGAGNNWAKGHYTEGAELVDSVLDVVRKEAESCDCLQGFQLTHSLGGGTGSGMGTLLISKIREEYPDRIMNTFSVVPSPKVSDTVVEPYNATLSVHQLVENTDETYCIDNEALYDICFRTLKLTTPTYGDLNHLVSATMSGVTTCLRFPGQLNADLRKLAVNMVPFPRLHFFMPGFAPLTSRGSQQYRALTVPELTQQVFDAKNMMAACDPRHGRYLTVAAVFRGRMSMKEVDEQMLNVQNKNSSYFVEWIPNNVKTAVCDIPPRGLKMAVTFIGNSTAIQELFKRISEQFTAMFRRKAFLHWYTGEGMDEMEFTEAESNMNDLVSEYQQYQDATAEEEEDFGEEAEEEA

[6] = biological target: T6, HeLa cell extract proteins (Homo sapiens, UniProt Q13907)
T6 construct: endogenous in cells; host or cells: HeLa cell extract
T6 sequence (Q13907 whole entry): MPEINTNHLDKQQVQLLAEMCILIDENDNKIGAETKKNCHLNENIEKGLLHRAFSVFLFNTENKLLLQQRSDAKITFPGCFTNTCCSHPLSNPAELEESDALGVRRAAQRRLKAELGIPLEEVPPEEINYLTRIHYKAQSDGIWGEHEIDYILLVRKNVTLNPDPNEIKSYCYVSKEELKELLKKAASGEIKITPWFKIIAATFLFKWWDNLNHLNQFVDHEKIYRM

[7] = biological target: T7, HeLa cell extract proteins (Homo sapiens, UniProt Q99570)
T7 construct: endogenous in cells; host or cells: HeLa cell extract
T7 sequence (Q99570 whole entry): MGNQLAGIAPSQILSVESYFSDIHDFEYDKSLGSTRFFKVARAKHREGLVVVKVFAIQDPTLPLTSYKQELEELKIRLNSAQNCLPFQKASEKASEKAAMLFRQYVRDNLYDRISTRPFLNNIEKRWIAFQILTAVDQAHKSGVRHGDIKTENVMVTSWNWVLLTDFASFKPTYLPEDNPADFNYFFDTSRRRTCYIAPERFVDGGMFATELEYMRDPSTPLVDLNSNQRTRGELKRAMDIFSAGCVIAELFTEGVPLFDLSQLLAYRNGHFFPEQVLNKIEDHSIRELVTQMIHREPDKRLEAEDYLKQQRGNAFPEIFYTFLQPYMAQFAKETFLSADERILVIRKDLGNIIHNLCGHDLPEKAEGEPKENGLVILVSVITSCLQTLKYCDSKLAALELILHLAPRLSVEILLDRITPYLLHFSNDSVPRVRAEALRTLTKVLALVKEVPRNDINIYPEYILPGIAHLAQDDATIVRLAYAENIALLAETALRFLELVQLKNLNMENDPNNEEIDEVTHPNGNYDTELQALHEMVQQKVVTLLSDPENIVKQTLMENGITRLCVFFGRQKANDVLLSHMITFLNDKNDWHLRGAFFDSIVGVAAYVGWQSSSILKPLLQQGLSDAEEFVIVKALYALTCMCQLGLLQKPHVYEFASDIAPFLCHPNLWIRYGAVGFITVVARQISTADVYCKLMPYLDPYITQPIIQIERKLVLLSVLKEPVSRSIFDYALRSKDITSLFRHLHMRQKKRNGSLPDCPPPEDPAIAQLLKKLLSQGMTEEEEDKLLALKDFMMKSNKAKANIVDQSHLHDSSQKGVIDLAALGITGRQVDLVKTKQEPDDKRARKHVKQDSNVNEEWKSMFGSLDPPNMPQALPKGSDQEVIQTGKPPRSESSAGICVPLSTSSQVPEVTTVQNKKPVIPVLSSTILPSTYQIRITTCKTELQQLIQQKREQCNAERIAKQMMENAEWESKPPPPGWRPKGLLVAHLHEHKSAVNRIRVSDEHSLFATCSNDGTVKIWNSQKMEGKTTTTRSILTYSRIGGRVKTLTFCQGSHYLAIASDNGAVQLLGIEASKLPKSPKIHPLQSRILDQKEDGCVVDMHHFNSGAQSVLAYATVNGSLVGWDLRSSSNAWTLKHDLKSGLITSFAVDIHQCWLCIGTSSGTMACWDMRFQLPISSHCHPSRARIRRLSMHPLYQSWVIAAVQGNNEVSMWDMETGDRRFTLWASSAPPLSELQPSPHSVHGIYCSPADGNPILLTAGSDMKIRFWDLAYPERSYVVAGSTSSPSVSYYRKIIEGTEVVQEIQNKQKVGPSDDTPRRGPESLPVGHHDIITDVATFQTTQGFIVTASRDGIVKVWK

[8] = biological target: T8, HeLa cell extract proteins (Homo sapiens, UniProt P28066)
T8 construct: endogenous in cells; host or cells: HeLa cell extract
T8 sequence (P28066 1-241): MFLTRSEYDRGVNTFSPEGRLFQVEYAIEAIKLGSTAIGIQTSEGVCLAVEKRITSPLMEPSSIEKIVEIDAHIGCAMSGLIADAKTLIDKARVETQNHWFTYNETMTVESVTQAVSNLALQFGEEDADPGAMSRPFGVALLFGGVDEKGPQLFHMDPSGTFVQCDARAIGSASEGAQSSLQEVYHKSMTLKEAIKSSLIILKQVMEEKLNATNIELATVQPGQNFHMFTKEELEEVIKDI

[9] = biological target: T9, HeLa cell extract proteins (Homo sapiens, UniProt P04183)
T9 construct: endogenous in cells; host or cells: HeLa cell extract
T9 sequence (P04183 1-234): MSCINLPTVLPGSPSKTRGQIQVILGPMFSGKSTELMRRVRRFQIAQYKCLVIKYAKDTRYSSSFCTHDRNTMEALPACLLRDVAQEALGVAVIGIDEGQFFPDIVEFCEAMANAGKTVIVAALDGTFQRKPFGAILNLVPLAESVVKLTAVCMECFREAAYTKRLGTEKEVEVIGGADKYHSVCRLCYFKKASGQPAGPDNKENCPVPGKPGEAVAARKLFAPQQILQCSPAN

[10] = biological target: T10, HeLa cell extract proteins (Homo sapiens, UniProt P53634)
T10 construct: endogenous in cells; host or cells: HeLa cell extract
T10 sequence (P53634 25-463): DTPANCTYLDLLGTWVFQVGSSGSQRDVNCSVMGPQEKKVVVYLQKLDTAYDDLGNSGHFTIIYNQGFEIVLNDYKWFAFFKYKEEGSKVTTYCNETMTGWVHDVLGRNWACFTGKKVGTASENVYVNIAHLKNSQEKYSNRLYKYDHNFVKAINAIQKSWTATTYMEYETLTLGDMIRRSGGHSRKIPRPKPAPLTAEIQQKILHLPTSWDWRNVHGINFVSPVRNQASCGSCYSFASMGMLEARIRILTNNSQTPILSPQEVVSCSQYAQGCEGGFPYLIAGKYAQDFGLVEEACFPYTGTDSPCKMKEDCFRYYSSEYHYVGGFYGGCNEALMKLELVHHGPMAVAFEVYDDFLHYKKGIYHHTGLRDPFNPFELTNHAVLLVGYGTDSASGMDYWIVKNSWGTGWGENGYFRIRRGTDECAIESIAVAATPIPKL

[11] = HeLa, protein TK1 (29 KDA PROTEIN)
[12] = HeLa, protein CTSC (DIPEPTIDYL-PEPTIDASE 1 PRECURSOR)
[13] = HeLa, protein ALDOC (FRUCTOSE-BI[…] C.)
[14] = HeLa, protein IDI1 (ISOPENTENYL-DIPHOSPHATE DELTA ISOMERASE.)

Compound	fold changes relative to vehicle control ([1]; HeLa, protein ACLY)	fold changes relative to vehicle control ([2]; HeLa, protein ALDOC)	fold changes relative to vehicle control ([3]; HeLa, protein PM20D2)	fold changes relative to vehicle control ([4]; HeLa, protein RUVBL1)	fold changes relative to vehicle control ([5]; protein TUBB, HeLa)	fold changes relative to vehicle control ([6]; HeLa, protein IDI1)	fold changes relative to vehicle control ([7]; HeLa, protein PIK3R4)	fold changes relative to vehicle control ([8]; HeLa, captured protein PSMA5)	fold changes relative to vehicle control [9, 11]	fold changes relative to vehicle control [10, 12]	fold changes relative to vehicle control ([1]; protein ACLY, HeLa)	fold changes relative to vehicle control ([3]; captured protein PM20D2, HeLa)	fold changes relative to vehicle control ([4]; protein RUVBL1, HeLa)	fold changes relative to vehicle control ([5]; HeLa, protein TUBB)	fold changes relative to vehicle control ([7]; captured protein PIK3R4, HeLa)	fold changes relative to vehicle control ([8]; HeLa, protein PSMA5)	fold changes relative to vehicle control ([9]; protein TK1, HeLa)	fold changes relative to vehicle control ([10]; protein CTSC, HeLa)	also measured
Nc1nc2c(c(=O)[nH]1)N(C=O)C(CNc1ccc(C(=O)N[C@@H](CCC(=O)O)C(=O)O)cc1)CN2 (stereo partly shown) [LEU, leucovorin]	1.04	0.9	0.9	1.06	0.91	1.09	0.97	1.03	0.97	1.03	–	–	–	–	–	–	–	–	–
Nc1nc2[nH]cc(CCc3ccc(C(=O)N[C@@H](CCC(=O)O)C(=O)O)cc3)c2c(=O)[nH]1 [PTX, pemetrexed]	–	–	–	–	–	–	–	–	–	–	–	–	–	–	–	–	–	–	fold changes relative to vehicle control [1]: 1.1; fold changes relative to vehicle control [2]: 1.04; fold changes relative to vehicle control [3]: 1; fold changes relative to vehicle control [4]: 0.92; fold changes relative to vehicle control [5]: 0.84; fold changes relative to vehicle control [6]: 1.03; fold changes relative to vehicle control [7]: 1.08; fold changes relative to vehicle control [8]: 1.04; fold changes relative to vehicle control [9]: 0.93; fold changes relative to vehicle control [10]: 0.84
CCCCCCOc1ccc(Cc2cnc(N)nc2N)cc1 [compound 1]	–	–	–	–	–	–	–	–	–	–	1.25	1.09	1.32	0.93	1.03	1.05	0.96	0.89	fold changes relative to vehicle control [2, 13]: 1.49 fold; fold changes relative to vehicle control [6, 14]: 1.5 fold
CCCCCCOc1cccc(Cc2cnc(N)nc2N)c1 [compound 2]	–	–	–	–	–	–	–	–	–	–	1.99	0.9	1.47	0.82	1.07	1.19	1.16	0.95	fold changes relative to vehicle control ([2]; HeLa, protein ALDOC (FRUCTOSE-BISPHOSPHATE ALDOLASE C.)): 2.35 fold; fold changes relative to vehicle control [6, 14]: 2.18 fold
Nc1nc2cccc(-c3ccccc3)c2n1Cc1ccc(Cl)c(Cl)c1 [compound 3]	–	–	–	–	–	–	–	–	–	–	1.2	1.1	1.04	1.02	0.95	1	1.16	0.86	fold changes relative to vehicle control [2, 13]: 1.23 fold; fold changes relative to vehicle control ([6]; HeLa, protein IDI1 (ISOPENTENYL-D[…] ISOMERASE.)): 0.88 fold
NCCOCCOCC(=O)Nc1nc2ncc(CNc3ccc(C(=O)NC(CCC(=O)O)C(=O)O)cc3)nc2c(=O)[nH]1 (stereo not shown) [compound 6]	1.19	1.06	1.05	1.07	0.95	1.2	1.2	1.08	1.06	0.82	–	–	–	–	–	–	–	–	–
NCCCNc1ccc(C(=O)NC(CCC(=O)O)C(=O)O)cc1 (stereo not shown) [compound 7]	1.04	1.12	0.89	1.2	0.98	1.01	1.08	0.99	1.12	0.97	–	–	–	–	–	–	–	–	–
